Measurements taken from the supplement of paper PMC10307832.

Experiments:
Assay in all cases: relative viability (nuclei count vs DMSO), 5 days (fraction); higher = more cells survive
[1] = system: A-427
How it was run: (§1)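 Relative viability is defined as nuclei in treated wells over nuclei in vehicle wells. Duplicate plates were run and medians reported. Lung cancer cell lines in 1536-well plates were dosed by pin tool one day after seeding, with one drug or with a fixed anchor-drug dose plus five library-drug doses (not always all listed) in √10 steps, and nuclei were counted after 5 days.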

[2] = system: A549
How it was run: as §1

[3] = system: ABC-1
How it was run: as §1

[4] = system: COR-L23
How it was run: as §1

[5] = system: EKVX
How it was run: as §1

[6] = system: LC-2-ad
How it was run: as §1

[7] = system: LCLC-97TM1
How it was run: as §1

[8] = system: LK-2
How it was run: as §1

[9] = system: LXF-289
How it was run: as §1

[10] = system: NCI-H1437
How it was run: as §1

[11] = system: NCI-H1666
How it was run: as §1

[12] = system: NCI-H1792
How it was run: as §1

[13] = system: NCI-H1915
How it was run: as §1

[14] = system: NCI-H2085
How it was run: as §1

[15] = system: NCI-H2087
How it was run: as §1

[16] = system: NCI-H2126
How it was run: as §1

[17] = system: NCI-H3122
How it was run: as §1

[18] = system: NCI-H322M
How it was run: as §1

[19] = system: NCI-H460
How it was run: as §1

[20] = system: NCI-H647
How it was run: as §1

[21] = system: NCI-H661
How it was run: as §1

[22] = system: NCI-H727
How it was run: as §1

[23] = system: PC-14
How it was run: as §1

`Nc1cccc2c1CN(C1CCC(=O)NC1=O)C2=O` (stereo unspecified) [Lenalidomide] + Nc1ncn([C@H]2C[C@H](O)[C@@H](CO)O2)c(=O)n1 [Decitabine] (partner 2 µM) was tested, and the relative viability ([1]; first compound 0.253 µM) was 0.566, the relative viability ([1]; first compound 0.8 µM) was 0.573 and the relative viability ([1]; first compound 2.53 µM) was 0.646. The relative viability ([1]; first compound 8 µM) was 0.552, the relative viability ([2]; first compound 0.253 µM) was 0.211 and the relative viability ([2]; first compound 0.8 µM) was 0.22. It also gave a relative viability ([2]; first compound 2.53 µM) of 0.268, a relative viability ([2]; first compound 8 µM) of 0.269 and a relative viability ([3]; first compound 0.253 µM) of 0.929. The relative viability ([3]; first compound 0.8 µM) was 1.05, the relative viability ([3]; first compound 2.53 µM) was 0.827 and the relative viability ([3]; first compound 8 µM) was 0.939. The relative viability ([4]; first compound 0.253 µM) was 0.416, the relative viability ([4]; first compound 0.8 µM) was 0.395 and the relative viability ([4]; first compound 2.53 µM) was 0.491. For the same compound, the relative viability ([4]; first compound 8 µM) was 0.409, the relative viability ([5]; first compound 0.253 µM) was 0.326 and the relative viability ([5]; first compound 0.8 µM) was 0.4. The relative viability ([5]; first compound 2.53 µM) was 0.336, the relative viability ([5]; first compound 8 µM) was 0.331 and the relative viability ([6]; first compound 0.253 µM) was 0.685. For the same compound, the relative viability ([6]; first compound 0.8 µM) was 0.81, the relative viability ([6]; first compound 2.53 µM) was 0.744 and the relative viability ([6]; first compound 8 µM) was 0.79. For the same compound, the relative viability ([7]; first compound 0.253 µM) was 0.226, the relative viability ([7]; first compound 0.8 µM) was 0.236 and the relative viability ([7]; first compound 2.53 µM) was 0.256. For the same compound, the relative viability ([7]; first compound 8 µM) was 0.221, the relative viability ([8]; first compound 0.253 µM) was 0.312 and the relative viability ([8]; first compound 0.8 µM) was 0.177. It also gave a relative viability ([8]; first compound 2.53 µM) of 0.36, a relative viability ([8]; first compound 8 µM) of 0.187 and a relative viability ([9]; first compound 0.253 µM) of 0.388. For the same compound, the relative viability ([9]; first compound 0.8 µM) was 0.351, the relative viability ([9]; first compound 2.53 µM) was 0.393 and the relative viability ([9]; first compound 8 µM) was 0.335. It also gave a relative viability ([10]; first compound 0.253 µM) of 0.556, a relative viability ([10]; first compound 0.8 µM) of 0.5 and a relative viability ([10]; first compound 2.53 µM) of 0.59. It also gave a relative viability ([10]; first compound 8 µM) of 0.648, a relative viability ([11]; first compound 0.253 µM) of 0.791 and a relative viability ([11]; first compound 0.8 µM) of 0.528. It also gave a relative viability ([11]; first compound 2.53 µM) of 0.772, a relative viability ([11]; first compound 8 µM) of 0.647 and a relative viability ([12]; first compound 0.253 µM) of 0.568. For the same compound, the relative viability ([12]; first compound 0.8 µM) was 0.454, the relative viability ([12]; first compound 2.53 µM) was 0.541 and the relative viability ([12]; first compound 8 µM) was 0.384. It also gave a relative viability ([13]; first compound 0.253 µM) of 0.247, a relative viability ([13]; first compound 0.8 µM) of 0.253 and a relative viability ([13]; first compound 2.53 µM) of 0.274. For the same compound, the relative viability ([13]; first compound 8 µM) was 0.241, the relative viability ([14]; first compound 0.253 µM) was 0.546 and the relative viability ([14]; first compound 0.8 µM) was 0.542. The relative viability ([14]; first compound 2.53 µM) was 0.529, the relative viability ([14]; first compound 8 µM) was 0.566 and the relative viability ([15]; first compound 0.253 µM) was 0.31. It also gave a relative viability ([15]; first compound 2.53 µM) of 0.303, a relative viability ([15]; first compound 8 µM) of 0.292 and a relative viability ([16]; first compound 0.253 µM) of 0.645. For the same compound, the relative viability ([16]; first compound 0.8 µM) was 0.611, the relative viability ([16]; first compound 2.53 µM) was 0.578 and the relative viability ([16]; first compound 8 µM) was 0.516. For the same compound, the relative viability ([17]; first compound 0.253 µM) was 0.375, the relative viability ([17]; first compound 0.8 µM) was 0.536 and the relative viability ([17]; first compound 2.53 µM) was 0.381. For the same compound, the relative viability ([17]; first compound 8 µM) was 0.386, the relative viability ([18]; first compound 0.253 µM) was 0.702 and the relative viability ([18]; first compound 0.8 µM) was 0.78. For the same compound, the relative viability ([18]; first compound 2.53 µM) was 0.725, the relative viability ([18]; first compound 8 µM) was 0.688 and the relative viability ([19]; first compound 0.253 µM) was 0.402. The relative viability ([19]; first compound 0.8 µM) was 0.476, the relative viability ([19]; first compound 2.53 µM) was 0.64 and the relative viability ([19]; first compound 8 µM) was 0.649. It also gave a relative viability ([20]; first compound 0.253 µM) of 0.426, a relative viability ([20]; first compound 0.8 µM) of 0.318 and a relative viability ([20]; first compound 2.53 µM) of 0.428. For the same compound, the relative viability ([20]; first compound 8 µM) was 0.446, the relative viability ([21]; first compound 0.253 µM) was 0.568 and the relative viability ([21]; first compound 0.8 µM) was 0.548. The relative viability ([21]; first compound 2.53 µM) was 0.621, the relative viability ([21]; first compound 8 µM) was 0.568 and the relative viability ([22]; first compound 0.253 µM) was 0.778. The relative viability ([22]; first compound 0.8 µM) was 0.637, the relative viability ([22]; first compound 2.53 µM) was 0.99 and the relative viability ([22]; first compound 8 µM) was 0.616. It also gave a relative viability ([23]; first compound 0.253 µM) of 0.199, a relative viability ([23]; first compound 0.8 µM) of 0.189 and a relative viability ([23]; first compound 2.53 µM) of 0.24. The relative viability ([23]; first compound 8 µM) was 0.226.
